Values joined by “and” are separate entries in the source; they are usually repeats but may differ in a detail not shown here. Equal values may be shown once.
Legend:
[1] = tested on: HS 578T; assay: NCI-60 SRB screen; format: cell-based
Description: (§1) Supplementary Table S 3: Antitumor activity of CTR -17 and CTR -20, alone or in combination […]
(§2) a Tax: paclitaxel. b mg per kg of bod y wei ght. c unit is mm 3.
(§3) Supplementary Figure l egend
(§4) 10μ M of CTR-20 was used to examine the drug’s efficac y against the NC I-60 cancer cell li nes including: six leukemia cell lines, nine non- small cell lung cancer cell lines, seven color ect al cancer cell lines, six CNS cancer cell lines, nine melanoma cell lines, seven ovari an can cer cell lines, seven ren al can cer cell lines, two prostate cancer cell lines and six breast cancer cell lines. The scr eenin g was car r ied out b y the US National Cancer Institute (NC I) us i n g a sulforhodamine B (SRB) colorimetric assay. […]
(§5) out by the NC I using five different doses of CTR -20.

[2] = tested on: SNB-75; assay: NCI-60 SRB screen; format: cell-based
Description: as §1, §2, §3, §4, §5

[3] = tested on: MOLT-4; assay: NCI-60 SRB screen; format: cell-based
Description: as §1, §2, §3, §4, §5

[4] = molecular target: tubulin, colchicine-binding pocket; assay: Competitive colchicine-tubulin binding assay (modified Dixon plot); conditions: competitive with colchicine
Protocol: To determine the mode of binding, a competitive binding assay was carried out as described previously. Briefly, tubulin (0.4 μmol/L) was incubated with different concentrations of CTR for 1 hour at 37 °C. Subsequently, colchicine was added to the reaction mixture containing CTR-tubulin complexes. […] Fluorescence was monitored using an automated plate reader (Synergy H4 Hybrid Multi-Mode Micro plate Reader) with an excitation wavelength at 360 nm and emission at 430 nm. […] The experiment was repeated four times.

[5] = tested on: NCI-60 cancer cell lines; assay: NCI-60 SRB screen, panel means; format: cell-based; conditions: mean of panel
Description: as §1, §2, §3, §4, §5

[6] = tested on: centrosomes; assay: Distance between two centrosomes by fluorescence microscopy; format: cell-based; conditions: 3.0 μmol/L CTR-17
Protocol: and Lee, 2008). The reversibility of drug effects was carried out as follow: He La cells treated
with CTR-17 or CTR-20 for 12 hours were w ashed twice with 1 × PBS and then releas ed into
pre-w armed complet emedium . Subsequentl y, c ell s were h arvested at scheduled time points to
ex amine their DNA profi les /cell c ycle positions by flow c ytometr y.
Immunofluorescencestai ning was car ried out as d escribed previousl y (Santi and Lee,
2011).Photograph y was carri ed out with a Carl Zeiss 510 Meta l aser s cann ing microscop e or an
Axioscope,and images were captur ed with LSM image examiner (Carl Zeiss, North York, ON,
Canada). For immunostaining , a background cont rol (without secondar y antibody) and bleed-
through controls (cells labeled with each fluorophore separatel y) were used to avoid inaccur ate
interpretation of dat a due to artifacts. A minimum of 10 fields per coverslip and 200 cells for
quantitative cell anal ysis were captur ed. Each ex periment was r epeat ed at l east twice. Western
blotting was carried out as described previousl y (Santi and Lee, 2010).
Molecular Operating Environment (MOE) (Chemi cal Computing Group Inc, Montreal, […]
The best docking pose was determined based on t he minimum free energy for binding. […]
hours or 24hours . The m itotic index was determined b y fluorescence micro scop y with counting […]

[7] = Homo sapiens, read-out: LC50 (the source's name)

COc1ccc2[nH]c(=O)c(/C=C/C(=O)c3ccccc3OC)cc2c1 [CTR-20, (E)-6-Methoxy-3-(3-(2-methoxyphenyl)-3-oxoprop-1-enyl) quinolin-2(1H)-one]
Log10LC50 [1]: > -4.00 Molar
Log10TGI [1]: -4.08 Molar
TGI [1]: 8.38E-5 Molar
Growth Percent ([1]; 1.00E-5 Molar): 8.33%
CC50 [1, 7]: > 100 µM
Percent Growth ([1]; Log10 Concentration -4.0): -8%
Percent Growth ([1]; Log10 Concentration -5.0): 91%
Percent Growth ([1]; Log10 Concentration -6.0): 37%
Percent Growth ([1]; Log10 Concentration -7.0): 98%
Percent Growth ([1]; Log10 Concentration -8.0): 96%
Log10GI50 [2]: -6.33 Molar
Log10LC50 [2]: -4.42 Molar
Log10TGI [2]: -4.85 Molar
TGI [2]: 1.42E-5 Molar
Growth Percent ([2]; 1.00E-5 Molar): -11.48%
GI50 ([2]; Homo sapiens): 0.47 µM
CC50 [2, 7]: 37.8 µM
Percent Growth ([2]; Log10 Concentration -4.0): -100%
Percent Growth ([2]; Log10 Concentration -5.0): 18%
Percent Growth ([2]; Log10 Concentration -6.0): 34%
Percent Growth ([2]; Log10 Concentration -7.0): 82%
Percent Growth ([2]; Log10 Concentration -8.0): 86%
Log10GI50 [3]: -6.38 Molar
Log10LC50 [3]: > -4.00 Molar
Log10TGI [3]: -4.57 Molar
TGI [3]: 2.71E-5 Molar
Growth Percent ([3]; 1.00E-5 Molar): 10.88%
GI50 ([3]; Homo sapiens): 0.421 µM
CC50 [3, 7]: > 100 µM
Percent Growth ([3]; Log10 Concentration -4.0): -12%
Percent Growth ([3]; Log10 Concentration -5.0): 9%
Percent Growth ([3]; Log10 Concentration -6.0): 21%
Percent Growth ([3]; Log10 Concentration -7.0): 98%
Percent Growth ([3]; Log10 Concentration -8.0): 97%
binding to the colchicine-binding pocket by Ki values, relative to CTR-17 [4]: approximately five times more strongly
Mean Growth Percent ([5]; 1.00E-5 Molar): 13.21%
Log10GI50 _MID [5]: -6.21 Molar
Log10LC50 _MID [5]: -4.58 Molar
Log10TGI _MID [5]: -5.29 Molar

COc1ccccc1C(=O)/C=C/c1cc2ccccc2[nH]c1=O [CTR-17, (E)-3-(3-(2-Methoxyphenyl)-3-oxoprop-1-enyl)quinolin-2(1H)-one]
distance between two centrosomes [6]: 4.83 ± 0.36 µm
distance between two centrosomes shorter than sham control [6]: ~ 35% and 35%

Source: PMC5578999, “Novel quinolone chalcones targeting colchicine-binding pocket kill multidrug-resistant cancer cells by inhibiting tubulin activity and MRP1 function” (Scientific Reports, 2017)
